Measured values as given in PMC7391767, “Molecular mechanisms underlying menthol binding and activation of TRPM8 ion channel” (Nature Communications, 2020).
Values joined by “and” are separate entries in the source; they are usually repeats but may differ in a detail not shown here. Equal values may be shown once.

Experiments:
Type in all cases: cell-based
ANAP-incorporated TRPM8 [1] = target: T1, ANAP-incorporated TRPM8 (Mus musculus, UniProt Q8R4D5, P734X); design: Shifts in ANAP emission, Ave: unit: nm; conditions: ANAP incorporation site P734; average shift, menthol activated vs resting state
T1 construct: expressed in transfected cells; host or cells: HEK293 cells, co-transfected with the pANAP vector
Procedure: (§1) As fluorescence emission peak of ANAP shifts to a longer wavelength in more hydrophilic environment, we measured the shift in ANAP emission peak to report conformational changes. Fluorescence properties of ANAP may also be affected by other factors such as temperature and pH[31], so we performed our ANAP experiments always at room temperature (22 ± 1°C). To control for changes in solution pH, we added 3 mM HEPES in ANAP imaging solution to buffer the pH at 7.2. We genetically integrated ANAP into a specific site on TRPM8 with special tRNA and synthetase encoded by pANAP vector (Fig. 5d).
(§2) L-ANAP methyl ester was purchased from AsisChem. pANAP vector was purchased from Addgene. ANAP was incorporated into TRPM8 by introducing a TAG amber stop codon mutation as previously reported. Briefly, after co-transfection of both TRPM8 and pANAP vectors, ANAP was directly added to the culture medium to the final concentration of 20 µM. After 1–2 days, ANAP-containing culture medium was completely changed. Cells were further cultured in ANAP-free medium overnight before experiments.
(§3) ANAP fluorescence was excited by the Ar laser with a 375/28 excitation filter, a T400lp dichroic mirror, and a 435LP emission filter on an inverted fluorescence microscope (Nikon TE2000-U) using a ×40 oil-immersion objective (NA 1.3). Emission spectrum of ANAP was imaged with an Acton SpectraPro 2150i spectrograph in conjunction with an optiMOS CCD camera (Qimaging, USA). We determined the ANAP emission peak value by fitting the emission spectrum with a skewed Gauss distribution in Igor Pro version 6.1 (WaveMatrix), and then the difference in emission peak values measured in the absence and presence of menthol was reported as the shift of ANAP emission.

ANAP-incorporated TRPM8 [2] = target: T2, ANAP-incorporated TRPM8 (Mus musculus, UniProt Q8R4D5, S820X); design: Shifts in ANAP emission, Ave: unit: nm; conditions: ANAP incorporation site S820; average shift, menthol activated vs resting state
T2 construct: expressed in transfected cells; host or cells: HEK293 cells, co-transfected with the pANAP vector
Procedure: as §1, §2, §3

ANAP-incorporated TRPM8 [3] = target: T3, ANAP-incorporated TRPM8 (Mus musculus, UniProt Q8R4D5, S966X); design: Shifts in ANAP emission, Ave: unit: nm; conditions: ANAP at S966
T3 construct: expressed in transfected cells; host or cells: HEK293 cells, co-transfected with the pANAP vector
Procedure: as §1, §2, §3

ANAP-incorporated TRPM8 [4] = target: T4, ANAP-incorporated TRPM8 (Mus musculus, UniProt Q8R4D5, L817X); design: Shifts in ANAP emission, Ave: unit: nm; conditions: ANAP incorporation site L817; average shift, menthol activated vs resting state
T4 construct: expressed in transfected cells; host or cells: HEK293 cells, co-transfected with the pANAP vector
Procedure: as §1, §2, §3

ANAP-incorporated TRPM8 [5] = target: T5, ANAP-incorporated TRPM8 (Mus musculus, UniProt Q8R4D5, Y787X); design: Shifts in ANAP emission, Ave: unit: nm; conditions: ANAP incorporation site Y787, menthol activated vs resting state
T5 construct: expressed in transfected cells; host or cells: HEK293 cells, co-transfected with the pANAP vector
Procedure: as §1, §2, §3

ANAP-incorporated TRPM8 [6] = target: T6, ANAP-incorporated TRPM8 (Mus musculus, UniProt Q8R4D5, L943X); design: Shifts in ANAP emission, Ave: unit: nm; conditions: ANAP incorporation site L943
T6 construct: expressed in transfected cells; host or cells: HEK293 cells, co-transfected with the pANAP vector
Procedure: as §1, §2, §3

ANAP-incorporated TRPM8 [7] = target: T7, ANAP-incorporated TRPM8 (Mus musculus, UniProt Q8R4D5, Q894X); design: Shifts in ANAP emission, Ave: unit: nm; conditions: ANAP incorporation site Q894
T7 construct: expressed in transfected cells; host or cells: HEK293 cells, co-transfected with the pANAP vector
Procedure: as §1, §2, §3

ANAP-incorporated TRPM8 [8] = target: T8, ANAP-incorporated TRPM8 (Mus musculus, UniProt Q8R4D5, F847X); design: Shifts in ANAP emission, Ave: unit: nm; conditions: ANAP incorporation site F847
T8 construct: expressed in transfected cells; host or cells: HEK293 cells, co-transfected with the pANAP vector
Procedure: as §1, §2, §3

wild-type TRPM8 = target: T9, wild-type TRPM8 (Mus musculus, UniProt Q8R4D5); experiment: open probability from noise analysis of macroscopic current and single-channel recordings
T9 construct: expressed in transfected cells; host or cells: HEK293T
T9 sequence (Q8R4D5 whole entry): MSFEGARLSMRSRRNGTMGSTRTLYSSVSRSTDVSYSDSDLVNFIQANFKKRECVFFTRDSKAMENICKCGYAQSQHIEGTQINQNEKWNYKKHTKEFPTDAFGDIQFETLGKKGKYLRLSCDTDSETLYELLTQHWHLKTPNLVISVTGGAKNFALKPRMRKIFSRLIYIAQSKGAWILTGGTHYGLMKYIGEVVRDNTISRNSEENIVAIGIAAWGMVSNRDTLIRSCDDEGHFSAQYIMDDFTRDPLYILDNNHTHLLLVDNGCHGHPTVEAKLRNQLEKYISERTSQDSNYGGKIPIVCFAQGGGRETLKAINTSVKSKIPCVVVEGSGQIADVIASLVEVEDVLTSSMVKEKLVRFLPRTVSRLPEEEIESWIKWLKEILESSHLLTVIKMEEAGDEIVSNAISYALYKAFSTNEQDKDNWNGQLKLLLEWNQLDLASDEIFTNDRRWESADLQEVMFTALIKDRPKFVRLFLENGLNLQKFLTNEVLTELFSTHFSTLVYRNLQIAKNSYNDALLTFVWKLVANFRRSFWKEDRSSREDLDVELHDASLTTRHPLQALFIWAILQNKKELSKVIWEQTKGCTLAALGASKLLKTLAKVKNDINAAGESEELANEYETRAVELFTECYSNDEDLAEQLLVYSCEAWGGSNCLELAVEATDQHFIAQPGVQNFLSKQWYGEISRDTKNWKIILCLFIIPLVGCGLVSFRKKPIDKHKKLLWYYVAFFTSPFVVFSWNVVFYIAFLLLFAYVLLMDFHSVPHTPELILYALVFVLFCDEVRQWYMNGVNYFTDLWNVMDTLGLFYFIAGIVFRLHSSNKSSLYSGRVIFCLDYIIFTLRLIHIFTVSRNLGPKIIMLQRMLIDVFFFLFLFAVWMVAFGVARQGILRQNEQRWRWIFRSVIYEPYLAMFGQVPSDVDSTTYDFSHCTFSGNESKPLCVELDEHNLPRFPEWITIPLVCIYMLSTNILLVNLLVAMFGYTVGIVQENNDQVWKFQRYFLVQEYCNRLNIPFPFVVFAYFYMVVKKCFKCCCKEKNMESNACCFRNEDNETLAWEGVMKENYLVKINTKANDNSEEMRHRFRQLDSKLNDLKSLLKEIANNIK
Procedure: Patch-clamp recordings were performed with a HEKA EPC10 amplifier controlled by PatchMaster software (HEKA). Whole-cell recordings were performed at ±80 mV. Patch pipettes were prepared from borosilicate glass and fire-polished to resistance of ~4 MΩ. For whole-cell recording, serial resistance was compensated by 60%. For single-channel recordings, patch pipettes were fire-polished to a higher resistance of 6-to-10 MΩ and then recorded in the inside-out configuration. To maximize the chance of obtaining a patch with only one channel, single-channel recordings were performed about 8 h after transfection. A solution with 130 mM NaCl, 10 mM glucose, 0.2 mM EDTA, and 3 mM HEPES (pH 7.2) was used in both bath and pipette for either whole-cell or single-channel recordings. Membrane potential was clamped at +80 mV for single-channel recordings. Current was sampled at 10 kHz and filtered at 2.9 kHz. All recordings were performed at room temperature (22 °C) with the maximum variation of 1 °C.
From single-channel recordings, the open probability (Po) was calculated after events detection with a hidden Markov approach in the software QuB[49] (http://www.qub.buffalo.edu/). A dead time of 0.32 ms was imposed. As a complementary approach, Po was also estimated from noise analysis[52] of whole-cell recordings. Briefly, the mean current amplitude (I), the squared deviations in current amplitude from the mean value (σ^2), and the single-channel current (i) were measured experimentally from a membrane patch of ion channels. Then the number of ion channels clamped in that patch (N) was determined as3 N=I^2/i⋅I−σ^2.
The maximum current when each of ion channel is at the open state with a Po of 1 is equal to i × N. Then the open probability was calculated as the ratio between the measured macroscopic current and the maximum current calculated by noise analysis. To estimate channel conductance, current amplitude was estimated from all-point histogram of single-channel recordings.

[9] = average shift, menthol activated vs resting state

What does the source list for CC(C)[C@@H]1CC[C@@H](C)C[C@H]1O [menthol, (−)-menthol]?
Shifts_ave (ANAP-incorporated TRPM8 [1]): 1.477 nm; Shifts_ave (ANAP-incorporated TRPM8 [2]): 0.28 nm; Shifts in ANAP emission, Ave (ANAP-incorporated TRPM8 [3]): 2.10; Shifts_ave (ANAP-incorporated TRPM8 [4]): 0.801 nm; Shifts_ave (ANAP-incorporated TRPM8 [5]; average shift): 1.928 nm; Shifts in emission (ANAP-incorporated TRPM8 [5]; single measurement): 1.56 nm and 1.57 nm and 2.4 nm and 1.35 nm and 2.69 nm and 2 nm; Shifts_ave (ANAP-incorporated TRPM8 [6]; [9]): -0.71 nm; Emission Peak at menthol activated state (ANAP-incorporated TRPM8 [6]; single measurement): 476.85 nm and 475.15 nm and 483.93 nm and 482.35 nm and 475.81 nm and 479.5 nm; Shifts_ave (ANAP-incorporated TRPM8 [7]; [9]): 1.82 nm; Emission Peak at menthol activated state (ANAP-incorporated TRPM8 [7]; single measurement): 487.18 nm and 484.04 nm and 488.11 nm and 490.92 nm and 483.4 nm; Shifts_ave (ANAP-incorporated TRPM8 [8]; [9]): -1.40 nm; Emission Peak at menthol activated state (ANAP-incorporated TRPM8 [8]; single measurement): 476.81 nm and 476.91 nm and 474.92 nm and 474.75 nm and 473.64 nm; agonist nature (wild-type TRPM8; noise analysis of macroscopic current, confirmed in single-channel recordings): partial agonist; maximum open probability (Po max) (wild-type TRPM8; wild-type TRPM8, near saturating concentration (menthol 500 µM)): 0.81 ± 0.03
